Counter-ions that a name gives are not always drawn.

The subject of this test is Endogenous Huntingtin Protein (HTT). Nature of the test: Endogenous Huntingtin Protein Assay (ELISA-based MSD electrochemiluminescence). The class given is cell-based. The note with it: Table 1. As for the experimental part:
Compounds of Formula (I) were tested using the Meso Scale Discovery (MSD) Assay provided in International Application No. PCT/US2016/066042, filed on Dec. 11, 2016 and claiming priority to U.S. Provisional Application 62/265,652 filed on Dec. 10, 2015, published as International Publication No. WO 2017/100726 on Jun. 15, 2017, the entire contents of which are incorporated herein by reference.
The Endogenous Huntingtin Protein assay used in Example 1 was developed using the ELISA-based MSD electrochemiluminescence assay platform.
Endogenous Huntingtin Protein Assay
Meso Scale Discovery (MSD) 96-well or 384-well plates were coated overnight at 4° C. with MW1 (expanded polyglutamine) or MAB2166 monoclonal antibody (for capture) at a concentration of 1 μg/mL in PBS (30 μL per well). Plates were then washed three times with 300 µL wash buffer (0.05% Tween-20 in PBS) and blocked (100 μL blocking buffer; 5% BSA in PBS) for 4-5 hours at room temperature with rotational shaking and then washed three times with wash buffer.
Samples (25 μL) were transferred to the antibody-coated MSD plate and incubated overnight at 4° C. After removal of the lysates, the plate was washed three times with wash buffer, and 25 μL of #5656S (Cell signaling; rabbit monoclonal) secondary antibody (diluted to 0.25 μg/mL in 0.05% Tween-20 in blocking buffer) was added to each well and incubated with shaking for 1 Hour at room temperature. Following incubation with the secondary antibody, the wells were rinsed with wash buffer after which 25 μL of goat anti-rabbit SULFO TAG secondary detection antibody (required aspect of the MSD system) (diluted to 0.25 μg/mL in 0.05% Tween-20 in blocking buffer) was added to each well and incubated with shaking for 1 hour at room temperature. After rinsing three times with wash buffer, 150 μL of read buffer T with surfactant (MSD) were added to each empty well, and the plate was imaged on a SI 6000 imager (MSD) according to manufacturers' instructions provided for 96- or 384-well plates.
`Cc1cn2cc(-c3cc(=O)n4cc(C5=CCNCC5)ncc4n3)cc2c(C)n1` [compound 413, 2-(1,3-dimethylpyrrolo[1,2-a]pyrazin-7-yl)-7-(1,2,3,6-tetrahydropyridin-4-yl)-4H-pyrazino[1,2-a]pyrimidin-4-one hydrochloride (1:2)] gave a concentration for half-maximal inhibition (IC50) of less than 100 nM.

Compound `Cc1cn2nc(-c3cc(=O)n4cc(N5CCNCC5)ccc4n3)cc2cn1` [compound 420, 2-(6-methylpyrazolo[1,5-a]pyrazin-2-yl)-7-(piperazin-1-yl)-4H-pyrido[1,2-a]pyrimidin-4-one] registered a concentration for half-maximal inhibition (IC50) of 1000 to 3000 nM. On to `Cc1nc2ccc(-c3cc(=O)n4cc(C5=CCNCC5)ncc4n3)cc2o1` [compound 421, 2-(2-methyl-1,3-benzoxazol-6-yl)-7-(1,2,3,6-tetrahydropyridin-4-yl)-4H-pyrazino[1,2-a]pyrimidin-4-one hydrochloride(1:1)], for which the IC50 fell in the range of 3000 to 33000 nM. `Cc1nc2ccc(-c3cc(=O)n4cc(C5=CCN(C)CC5)ncc4n3)cc2o1` [compound 422, 2-(2-methyl-1,3-benzoxazol-6-yl)-7-(1-methyl-1,2,3,6-tetrahydropyridin-4-yl)-4H-pyrazino[1,2-a]pyrimidin-4-one] had a concentration for half-maximal inhibition (IC50) of 100 to 500 nM. To `CCN1CC=C(c2cn3c(=O)cc(-c4ccc5nc(C)oc5c4)nc3cn2)CC1` [compound 423, 7-(1-ethyl-1,2,3,6-tetrahydropyridin-4-yl)-2-(2-methyl-1,3-benzoxazol-6-yl)-4H-pyrazino[1,2-a]pyrimidin-4-one] belongs 3000 to 33000 nM; to `Cc1cn2nc(-c3cc(=O)n4cc(N5CCC(N6CCOCC6)CC5)ccc4n3)cc2c(C)n1` [compound 428, 2-(4,6-dimethylpyrazolo[1,5-a]pyrazin-2-yl)-7-[4-(morpholin-4-yl)piperidin-1-yl]-4H-pyrido[1,2-a]pyrimidin-4-one], 3000 to 33000 nM; to `Cc1cn2cc(-c3cc(=O)n4cc(C5CCNCC5)ccc4n3)ccc2n1` [compound 438, 2-(2-methylimidazo[1,2-a]pyridin-6-yl)-7-(piperidin-4-yl)-4H-pyrido[1,2-a]pyrimidin-4-one], 500 to 1000 nM. The compound `Cc1cn2nc(-c3cc(=O)n4cc(N5CCN[C@@H](C)C5)ccc4n3)cc2cn1` [compound 441, 7-[(3S)-3-methylpiperazin-1-yl]-2-(6-methylpyrazolo[1,5-a]pyrazin-2-yl)-4H-pyrido[1,2-a]pyrimidin-4-one] yielded a half-inhibitory concentration (IC50) of 1000 to 3000 nM. To `Cc1cn2nc(-c3cc(=O)n4cc(N5C[C@@H](C)N[C@@H](C)C5)ccc4n3)cc2cn1` [compound 442, 7-[(3R,5S)-3,5-dimethylpiperazin-1-yl]-2-(6-methylpyrazolo[1,5-a]pyrazin-2-yl)-4H-pyrido[1,2-a]pyrimidin-4-one] belongs 3000 to 33000 nM; to `CN(C)c1ccc(-c2cc(=O)n3cc(C4=CCNCC4)ccc3n2)cn1` [compound 444, 2-[6-(dimethylamino)pyridin-3-yl]-7-(1,2,3,6-tetrahydropyridin-4-yl)-4H-pyrido[1,2-a]pyrimidin-4-one], 3000 to 33000 nM; to `CN1CC=C(c2ccc3nc(-c4ccc(N(C)C)nc4)cc(=O)n3c2)CC1` [compound 450, 2-[6-(dimethylamino)pyridin-3-yl]-7-(1-methyl-1,2,3,6-tetrahydropyridin-4-yl)-4H-pyrido[1,2-a]pyrimidin-4-one], 3000 to 33000 nM. To `CCN(CC)C1CCN(c2ccc3nc(-c4cc5c(C)nc(C)cn5n4)cc(=O)n3c2)CC1` [compound 451, 7-[4-(diethylamino)piperidin-1-yl]-2-(4,6-dimethylpyrazolo[1,5-a]pyrazin-2-yl)-4H-pyrido[1,2-a]pyrimidin-4-one] belongs 3000 to 33000 nM; to `Cc1cn2nc(-c3cc(=O)n4cc(C5CCNCC5)ccc4n3)cc2c(C)n1` [compound 452, 2-(4,6-dimethylpyrazolo[1,5-a]pyrazin-2-yl)-7-(piperidin-4-yl)-4H-pyrido[1,2-a]pyrimidin-4-one], 100 to 500 nM; to `Cc1cn2cc(-c3ccc4nc(C5CCN(C)CC5)cc(=O)n4c3)ccc2n1` [compound 460, 7-(2-methylimidazo[1,2-a]pyridin-6-yl)-2-(1-methylpiperidin-4-yl)-4H-pyrido[1,2-a]pyrimidin-4-one], 3000 to 33000 nM. Regarding `Cc1cn2cc(-c3ccc4nc(C5CCN(C(C)C)CC5)cc(=O)n4c3)ccc2n1` [compound 461, 7-(2-methylimidazo[1,2-a]pyridin-6-yl)-2-[1-(propan-2-yl)piperidin-4-yl]-4H-pyrido[1,2-a]pyrimidin-4-one], the 50% inhibitory concentration (IC50) was 3000 to 33000 nM. To `Cc1cn2cc(-c3ccc4nc(C5CCN(C)CC5)cc(=O)n4c3)cc(F)c2n1` [compound 462, 7-(8-fluoro-2-methylimidazo[1,2-a]pyridin-6-yl)-2-(1-methylpiperidin-4-yl)-4H-pyrido[1,2-a]pyrimidin-4-one] belongs 1000 to 3000 nM; to `CCN1CC=C(c2ccc3nc(-c4ccc5c(cnn5C)c4)cc(=O)n3c2)CC1` [compound 463, 7-(1-ethyl-1,2,3,6-tetrahydropyridin-4-yl)-2-(1-methyl-1H-indazol-5-yl)-4H-pyrido[1,2-a]pyrimidin-4-one], 3000 to 33000 nM. To `CN(C)c1ccc(-c2cc(=O)n3cc(C4CCNCC4)ccc3n2)cn1` [compound 465, 2-[6-(dimethylamino)pyridin-3-yl]-7-(piperidin-4-yl)-4H-pyrido[1,2-a]pyrimidin-4-one] belongs 3000 to 33000 nM; to `Cn1cc2cc(-c3cc(=O)n4cc(C5=CCNCC5)ccc4n3)ccc2n1` [compound 474, 2-(2-methyl-2H-indazol-5-yl)-7-(1,2,3,6-tetrahydropyridin-4-yl)-4H-pyrido[1,2-a]pyrimidin-4-one], 500 to 1000 nM; to `CN1CC=C(c2ccc3nc(-c4ccc5nn(C)cc5c4)cc(=O)n3c2)CC1` [compound 476, 2-(2-methyl-2H-indazol-5-yl)-7-(1-methyl-1,2,3,6-tetrahydropyridin-4-yl)-4H-pyrido[1,2-a]pyrimidin-4-one], 3000 to 33000 nM. `CCN1CC=C(c2ccc3nc(-c4ccc5nn(C)cc5c4)cc(=O)n3c2)CC1` [compound 477, 7-(1-ethyl-1,2,3,6-tetrahydropyridin-4-yl)-2-(2-methyl-2H-indazol-5-yl)-4H-pyrido[1,2-a]pyrimidin-4-one] displayed an IC50 of 1000 to 3000 nM.

In turn, `Cc1cn2cc(-c3cc(=O)n4cc(C5=CCN(C(C)C)CC5)ncc4n3)cc2c(C)n1` [compound 479, 2-(1,3-dimethylpyrrolo[1,2-a]pyrazin-7-yl)-7-[1-(propan-2-yl)-1,2,3,6-tetrahydropyridin-4-yl]-4H-pyrazino[1,2-a]pyrimidin-4-one] showed a concentration for half-maximal inhibition (IC50) of 3000 to 33000 nM. As to `Cc1cn2nc(-c3cc(=O)n4cc(C5=CCNCC5)cc(C)c4n3)cc2c(C)n1` [compound 480, 2-(4,6-dimethylpyrazolo[1,5-a]pyrazin-2-yl)-9-methyl-7-(1,2,3,6-tetrahydropyridin-4-yl)-4H-pyrido[1,2-a]pyrimidin-4-one], the half-inhibitory concentration (IC50) was in the range of 100 to 500 nM. In turn, `Cc1cn2nc(-c3cc(=O)n4cc(C5=CCN(C)CC5)cc(C)c4n3)cc2c(C)n1` [compound 481, 2-(4,6-dimethylpyrazolo[1,5-a]pyrazin-2-yl)-9-methyl-7-(1-methyl-1,2,3,6-tetrahydropyridin-4-yl)-4H-pyrido[1,2-a]pyrimidin-4-one] yielded an IC50 of 3000 to 33000 nM.

In the case of `CCN1CC=C(c2cc(C)c3nc(-c4cc5c(C)nc(C)cn5n4)cc(=O)n3c2)CC1` [compound 482, 2-(4,6-dimethylpyrazolo[1,5-a]pyrazin-2-yl)-7-(1-ethyl-1,2,3,6-tetrahydropyridin-4-yl)-9-methyl-4H-pyrido[1,2-a]pyrimidin-4-one], the half-inhibitory concentration (IC50) was 3000 to 33000 nM. As for `Cc1cc2cc(-c3cc(=O)n4cc(N5CCNCC5)ccc4n3)oc2c(C)n1` [compound 486, 2-(5,7-dimethylfuro[2,3-c]pyridin-2-yl)-7-(piperazin-1-yl)-4H-pyrido[1,2-a]pyrimidin-4-one], the figure is 500 to 1000 nM; as for `Cc1cc2cc(-c3cc(=O)n4cc(N5CCN(C)CC5)ccc4n3)oc2c(C)n1` [compound 487, 2-(5,7-dimethylfuro[2,3-c]pyridin-2-yl)-7-(4-methylpiperazin-1-yl)-4H-pyrido[1,2-a]pyrimidin-4-one], 500 to 1000 nM. Compound `CN1CCN(c2ccc3nc(-c4ccc5c(cnn5C)c4)cc(=O)n3c2)CC1` [compound 489, 2-(1-methyl-1H-indazol-5-yl)-7-(4-methylpiperazin-1-yl)-4H-pyrido[1,2-a]pyrimidin-4-one] had a 50% inhibitory concentration (IC50) of 3000 to 33000 nM. Consider `Cn1ncc2cc(-c3cc(=O)n4cc(N5CCNCC5)ccc4n3)ccc21` [compound 490, 2-(1-methyl-1H-indazol-5-yl)-7-(piperazin-1-yl)-4H-pyrido[1,2-a]pyrimidin-4-one], for which the IC50 was 3000 to 33000 nM. The compound `Cc1cn2nc(-c3cc(=O)n4cc(C5CCNCC5)ncc4n3)cc2c(C)n1` [compound 502, 2-(4,6-dimethylpyrazolo[1,5-a]pyrazin-2-yl)-7-(piperidin-4-yl)-4H-pyrazino[1,2-a]pyrimidin-4-one] came in with a concentration for half-maximal inhibition (IC50) of less than 100 nM.

Source of the values: patent US11382918B2, “Methods for treating Huntington's Disease” (PTC Therapeutics, Inc., priority 2017, dated 2022).
